Test results: US20230099229A1, “METHODS OF TREATING MULTIPLE SCLEROSIS” (REPRISE PHARMACEUTICALS, INC., priority 2020, published 2023)
Where a name gives a salt, the structure may show the parent alone.

Tested on: Experimental allergic encephalitis (EAE) in female C57BL/6 mice
Assay: EAE model in C57BL/6 mice, daily neurological clinical score (Example 2)
Type: in vivo, mouse
Settings: C57BL/6 mice treated from clinical score 2 for 28 days; DMF 15 mg/kg BID, GCZ 5 mg/kg BID, alone or combined; compared to vehicle control and single agents
Description: Experimental allergic encephalitis (EAE) is induced in female C57BL/6 mice (10 weeks old) by subcutaneous injection in the flank regions (left and right sides) with 200 μl total of an emulsion of MOG35-55 peptide (200 μg in 100 μl phosphate buffered saline plus 100 μl of complete Freund's adjuvant containing […] of heat-inactivated Mycobacterium tuberculosis). Each mouse then receives 200 ng of pertussis toxin intraperitoneally (IP) on the day of immunization (day 0) and then again 48 h later (day 2). Neurological assessments are reported using a five-point standardized rating scale to evaluate motor deficit: 0, no deficit; 1, tail paralysis; 2, unilateral hind limb weakness; 3, incomplete bilateral hind limb paralysis and/or partial forelimb weakness; 4, complete hind limb paralysis and partial forelimb weakness; 5, moribund state or death.
The DMF is prepared as a suspension (15 mg/ml) in 0.8% hydroxypropyl methylcellulose (HPMC) weekly and kept at 4° C. under constant stirring. DMF is diluted into 200 μl HPMC, corresponding to a dose of 15 mg/kg body weight, and is administered twice daily (30 mg/kg/day) by oral gavage through a bulb-tipped curved gastric gavage needle by trained operators.
Experimental allergic encephalitis (EAE) was induced in female C57BL/6 mice as described in Example 1. […]

Row | Structure (SMILES) | EAE clinical scores (five-point motor deficit scale 0-5), fitted regression curves
1 | Cc1ccc(S(=O)(=O)NC(=O)NN2CC3CCCC3C2)cc1 (centres unmarked) [GCZ, gliclazide] | no observed difference
2 | COC(=O)/C=C/C(=O)OC [DMF, dimethyl fumarate] | no observed difference
